From the NIST ThermoML archive (doi:10.1016/j.fluid.2014.09.014)

Assay: refractive index (other wavelength) (dimensionless); xn = mol fraction of the nth substance listed
Details: 313.15 K, 101 kPa, Liquid, Standard Abbe refractometry

CC(C)OC(C)C [diisopropyl ether] + CC(C)O
refractive index
Details	Wavelength=587.6 nm	Wavelength=589.3 nm	Wavelength=632.8 nm	Wavelength=644 nm
x1 = 0.0277	–	1.36835	1.36708	1.36678
x1 = 0.0507	–	1.36828	1.367	1.3667
x1 = 0.051	–	1.36822	1.36696	1.36665
x1 = 0.0717	–	1.36787	1.36659	1.36629
x1 = 0.1528	–	1.36718	1.3659	1.36561
x1 = 0.1553	–	1.36718	1.3659	1.36561
x1 = 0.1938	–	1.36694	1.36566	1.36537
x1 = 0.2029	–	1.3664	1.36512	1.36482
x1 = 0.245	–	1.36591	1.36465	1.36436
x1 = 0.297	–	1.36507	1.36381	1.36351
x1 = 0.2973	–	1.36529	1.36401	1.36372
x1 = 0.3068	–	1.36504	1.36377	1.36347
x1 = 0.398	–	1.3637	1.36244	1.36213
x1 = 0.4609	–	1.36297	1.36172	1.36142
x1 = 0.5434	1.36211	1.36206	1.36081	1.36051
x1 = 0.6032	1.36136	1.3613	1.36007	1.35977
x1 = 0.6371	1.36099	1.36094	1.3597	1.3594
x1 = 0.701	1.36025	1.36019	1.35895	1.35865
x1 = 0.754	1.35981	1.35976	1.35851	1.35821
x1 = 0.791	1.35941	1.35936	1.35812	1.35782
x1 = 0.8296	1.35902	1.35897	1.35772	1.35742
x1 = 0.8864	1.3589	1.35885	1.35758	1.35729
x1 = 0.8903	1.35833	1.35827	1.35704	1.35674
x1 = 0.9113	1.35809	1.35802	1.35679	1.3565
x1 = 0.9547	1.35761	1.35756	1.35631	–
x1 = 0.973	1.35727	1.35722	1.35599	–
x1 = 0.9771	1.35715	1.3571	1.35587	–
x1 = 1	1.357	1.35694	1.35572	–
